Like-named read-outs stand apart in the source and are kept apart here.
Legend:
cytochrome c = type: cell-based, mouse
mtOXPHOS transcripts = type: cell-based, mouse
reactive oxygen species = type: cell-based, mouse
nuOXPHOS transcripts = type: cell-based, mouse
OXPHOS gene expression = type: cell-based, mouse
[1] = system: cellular dehydrogenase activity
[2] = system: mitochondrial membrane potential; type: cell-based, mouse
[3] = composite Z-score vs DMSO, Conc 20 μM
[4] = composite Z-score vs mock-treated (DMSO) wells, Conc 20 μM
[5] = 20 μM, composite Z-score vs DMSO
[6] = normalized composite Z-score vs mock-treated (DMSO) wells, Conc 20 μM
[7] = Table 4, C2C12 myotubes, 48 h, composite Z-score
[8] = Table 4, C2C12 myotubes, 48 h, JC-1, composite Z-score
[9] = Conc 20 μM, normalized score vs mock-treated (DMSO) wells

Chain of cytochrome c (P62897 whole entry): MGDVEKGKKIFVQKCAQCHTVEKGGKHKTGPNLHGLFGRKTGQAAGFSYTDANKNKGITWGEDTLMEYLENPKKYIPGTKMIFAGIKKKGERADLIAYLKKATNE

Compound	cyt c (cytochrome c; [3])	mitoOX (mtOXPHOS transcripts; [3])	ROS (reactive oxygen species; [3])	Viability (C2C12 myotubes; [3])	nucOX (nuOXPHOS transcripts; [3])	GE-HTS (OXPHOS gene expression; [3])	MTT [1, 3]	ΔΨm [2, 3]	cyt c (cytochrome c; [4])	mitoOX (mtOXPHOS transcripts; [4])	ROS (reactive oxygen species; [4])	Viability (C2C12 myotubes; [4])	nucOX (nuOXPHOS transcripts; [4])	GE-HTS (OXPHOS gene expression; [4])	MTT [1, 4]	ΔΨm [2, 4]	also measured
COc1cc2c3cc1Oc1c(OC)c(OC)cc4c1[C@@H](Cc1ccc(O)c(c1)Oc1ccc(cc1)C[C@@H]3N(C)CC2)N(C)CC4 [berbamine]	0.445	−0.636	0.153	−1.126	−0.166	−0.345	−1.021	−0.289									
CC(=O)C1=C(O)[C@@H]2[C@H]3c4c[nH]c5cccc(c45)C[C@H]3C(C)(C)N2C1=O [cyclopiazonic acid]	0.033	0.172	−0.293	−1.392	0.163	0.186	−1.107	0.863									
COc1cc2occc2c2oc(=O)ccc12 [isobergaptene]									0.486	0.715	1.329	0.375	0.338	0.514	−1.025	−0.112	
C=CC(C1=CC(=O)C(OC)=CC1=O)c1ccc(O)cc1 (centres unmarked) [4-methoxy-4′-hydroxy-dalbergione]									0.803	−1.071	0.639	1.548	−1.406	−1.401	−0.877	0.406	
C[C@]12CC[C@@H]3c4ccc(O)cc4CC[C@H]3[C@@H]1CC[C@@H]2O [estradiol]	0.389	−0.058	0.310	0.400	0.410	0.290	−1.040	−0.085									
CCCCC(CC)CNC(=N)NC(=N)NCCCCCCNC(=N)NC(=N)NCC(CC)CCCC (centres unmarked) [alexidine]																	cyt c (cytochrome c): −3.201; cyt c (cytochrome c; [5]): −3.981; mitoOX (mtOXPHOS transcripts): −2.011; mitoOX (mtOXPHOS transcripts; [5]): −0.150; ROS (reactive oxygen species): −4.270; ROS (reactive oxygen species; [5]): −0.298; Viability (C2C12 myotubes): −4.805; Viability (C2C12 myotubes; [5]): −2.974; nucOX (nuOXPHOS transcripts): −1.387; nucOX (nuOXPHOS transcripts; [5]): −0.289; GE-HTS (OXPHOS gene expression): −1.696; GE-HTS (OXPHOS gene expression; [5]): −0.288; MTT [1]: −5.432; MTT [1, 5]: −2.693; ΔΨm [2]: −3.726; ΔΨm [2, 5]: −1.139
CC(C)=CCCC1(C)C=Cc2c(O)c3c(c(CC=C(C)C)c2O1)OC12C(CC4CC1C(C)(C)OC2(C/C=C(/C)C(=O)O)C4O)C3=O (centres unmarked) [tetrahydrogambogic acid]									−0.932	−0.490	0.460	1.434	−0.409	−0.478	−1.090	−1.438	
avermectin B1	0.116	0.295	2.442	0.129	0.170	0.198	−0.284	−0.336									
CC(C)=CCc1c(O)cc2occ(-c3ccc4c(c3)OCO4)c(=O)c2c1O [derrubone]	−0.126	0.066	1.419	−0.568	−0.626	−0.409	−0.499	−1.272									
dihydromundulone [reference compound]																	cyt c (cytochrome c; [6]): −0.210; mitoOX (mtOXPHOS transcripts; [6]): 0.168; ROS (reactive oxygen species; [7]): 0.537; ROS (reactive oxygen species; [6]): 0.537; Viability (C2C12 myotubes; [7]): 0.816; Viability (C2C12 myotubes; [6]): 0.816; nucOX (nuOXPHOS transcripts; [6]): 0.513; GE-HTS (OXPHOS gene expression; [6]): 0.414; MTT [1, 7]: 0.189; MTT [1, 6]: 0.189; ΔΨm [2, 8]: −0.530; ΔΨm [2, 6]: −0.530
COc1ccc([C@H]2Oc3c(I)c(OC)cc(OC)c3C[C@@H]2O)cc1OC [8-iodocatechin tetramethyl ether, reference compound]									0.237	−1.411	−0.448	0.377	−0.985	−1.194	−1.359	0.146	ROS (reactive oxygen species; [7]): −0.448; Viability (C2C12 myotubes; [7]): 0.377; MTT [1, 7]: −1.359; ΔΨm [2, 8]: 0.146
O=C1c2ccc(O)cc2OC(c2cc(O)c(O)c(O)c2)C1O (stereo in doubt) [dihydrorobinetin, reference compound]																	cyt c (composite Z-score) (cytochrome c; [9]): 0.082; mitoOX (composite Z-score) (mtOXPHOS transcripts; [9]): −1.124; ROS (composite Z-score) (reactive oxygen species; [9]): −0.393; ROS (reactive oxygen species; [7]): −0.393; Viability (composite Z-score) (C2C12 myotubes; [9]): −1.070; Viability (C2C12 myotubes; [7]): −1.070; nucOX (composite Z-score) (nuOXPHOS transcripts; [9]): −1.089; GE-HTS (composite Z-score) (OXPHOS gene expression; [9]): −1.192; MTT (composite Z-score) [1, 9]: −1.259; MTT [1, 7]: −1.259; ΔΨm (composite Z-score) [2, 9]: −3.396; ΔΨm [2, 8]: −3.396
